According to PubChem BioAssay AID1963847 (Molecular Pharmacology Branch, DTP, NCI, 2024):
pIC50: −log10 of the molar value.

System: 415267-285-R-J2-PDC complex spheroid viability
Assay: Anticancer human tumor 415267-285-R-J2-PDC patient-derived breast carcinoma cell line growth inhibition [POLQ]
Settings: for pIC50: curve of first compound; for viability, T/C: stronger effect = lower value
How it was run: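 Growth inhibition in 3D: complex spheroids (tumor PDC, HUVEC, MSC) treated with POLQ inhibitor combinations; where Cmax unknown, highest tested concentration 10 microM, except SN-38 at 1 microM.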

[1] = second compound 0.0316 µM, first compound 0.0316 µM
[2] = second compound 0.0316 µM, first compound 0.1 µM
[3] = second compound 0.0316 µM, first compound 0.316 µM
[4] = second compound 0.0316 µM, first compound 1 µM
[5] = second compound 0.0316 µM, first compound 3.16 µM
[6] = second compound 0.0316 µM, first compound 10 µM
[7] = second compound 0.1 µM, first compound 0.0316 µM
[8] = second compound 0.1 µM, first compound 0.1 µM
[9] = second compound 0.1 µM, first compound 0.316 µM
[10] = second compound 0.1 µM, first compound 1 µM
[11] = second compound 0.1 µM, first compound 3.16 µM
[12] = second compound 0.1 µM, first compound 10 µM
[13] = second compound 0.316 µM, first compound 0.0316 µM
[14] = second compound 0.316 µM, first compound 0.1 µM
[15] = second compound 0.316 µM, first compound 0.316 µM
[16] = second compound 0.316 µM, first compound 1 µM
[17] = second compound 0.316 µM, first compound 3.16 µM
[18] = second compound 0.316 µM, first compound 10 µM
[19] = second compound 1 µM, first compound 0.0316 µM
[20] = second compound 1 µM, first compound 0.1 µM
[21] = second compound 1 µM, first compound 0.316 µM
[22] = second compound 1 µM, first compound 1 µM
[23] = second compound 1 µM, first compound 3.16 µM
[24] = second compound 1 µM, first compound 10 µM
[25] = second compound 3.16 µM, first compound 0.0316 µM
[26] = second compound 3.16 µM, first compound 0.1 µM
[27] = second compound 3.16 µM, first compound 0.316 µM
[28] = second compound 3.16 µM, first compound 1 µM
[29] = second compound 3.16 µM, first compound 3.16 µM
[30] = second compound 3.16 µM, first compound 10 µM
[31] = second compound 10 µM, first compound 0.0316 µM
[32] = second compound 10 µM, first compound 0.1 µM
[33] = second compound 10 µM, first compound 0.316 µM
[34] = second compound 10 µM, first compound 1 µM
[35] = second compound 10 µM, first compound 3.16 µM
[36] = second compound 10 µM, first compound 10 µM
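Note: spheroids exposed to compounds for one week before readout.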
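Throughout, for viability, T/C: luminescence used as stand-in measure of viable cells; 100% = DMSO vehicle control viability.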

COc1cc(C2c3cc4c(cc3C(OC3OC5COC(C)OC5C(O)C3O)C3COC(=O)C23)OCO4)cc(OC)c1O (stereo unspecified) + COC1C(OC(N)=O)C(O)C(Oc2ccc3c(O)c(NC(=O)c4ccc(O)c(CC=C(C)C)c4)c(=O)oc3c2C)OC1(C)C
pIC50 (second compound 0.0316 µM): 6.81 | pIC50 (second compound 0.1 µM): 6.81 | pIC50 (second compound 0.316 µM): 6.83 | pIC50 (second compound 1 µM): 6.82 | pIC50 (second compound 3.16 µM): 6.78 | pIC50 (second compound 10 µM): 6.79 | viability, T/C [1]: 88.3% | viability, T/C [2]: 72.4% | viability, T/C [3]: 13.8% | viability, T/C [4]: 8.42% | viability, T/C [5]: 5.21% | viability, T/C [6]: 6.94% | viability, T/C [7]: 97.4% | viability, T/C [8]: 72.1% | viability, T/C [9]: 14.5% | viability, T/C [10]: 8.54% | viability, T/C [11]: 5.95% | viability, T/C [12]: 5.76% | viability, T/C [13]: 97.7% | viability, T/C [14]: 69.6% | viability, T/C [15]: 12.8% | viability, T/C [16]: 8.42% | viability, T/C [17]: 5.87% | viability, T/C [18]: 6.37% | viability, T/C [19]: 98.3% | viability, T/C [20]: 71.6% | viability, T/C [21]: 13.1% | viability, T/C [22]: 7.07% | viability, T/C [23]: 6.69% | viability, T/C [24]: 5.99% | viability, T/C [25]: 87.1% | viability, T/C [26]: 75.9% | viability, T/C [27]: 17% | viability, T/C [28]: 8.05% | viability, T/C [29]: 5.46% | viability, T/C [30]: 6.77% | viability, T/C [31]: 101% | viability, T/C [32]: 75.6% | viability, T/C [33]: 15.3% | viability, T/C [34]: 8.14% | viability, T/C [35]: 6.45% | viability, T/C [36]: 5.77%

CC1COCCN1c1cc(C2(S(C)(=N)=O)CC2)nc(-c2ccnc3[nH]ccc23)n1 (stereo unspecified) + Cc1cccc(N(C)C(=O)C2C(O)CCN2c2nc(C)cc(C(F)(F)F)c2C#N)c1
pIC50 (second compound 0.0316 µM): 6.31 | pIC50 (second compound 0.1 µM): 6.35 | pIC50 (second compound 0.316 µM): 6.36 | pIC50 (second compound 1 µM): 6.33 | pIC50 (second compound 3.16 µM): 6.37 | pIC50 (second compound 10 µM): 6.30 | viability, T/C [1]: 88.4% | viability, T/C [2]: 102% | viability, T/C [3]: 70.3% | viability, T/C [4]: 15.8% | viability, T/C [5]: 6.51% | viability, T/C [6]: 5.21% | viability, T/C [7]: 92.8% | viability, T/C [8]: 96.3% | viability, T/C [9]: 65% | viability, T/C [10]: 14.3% | viability, T/C [11]: 5.97% | viability, T/C [12]: 4.58% | viability, T/C [13]: 102% | viability, T/C [14]: 98.7% | viability, T/C [15]: 62.8% | viability, T/C [16]: 17.7% | viability, T/C [17]: 6.78% | viability, T/C [18]: 4.96% | viability, T/C [19]: 106% | viability, T/C [20]: 107% | viability, T/C [21]: 70.2% | viability, T/C [22]: 12.4% | viability, T/C [23]: 6.47% | viability, T/C [24]: 5.16% | viability, T/C [25]: 94.2% | viability, T/C [26]: 94.8% | viability, T/C [27]: 62.4% | viability, T/C [28]: 12.5% | viability, T/C [29]: 6.4% | viability, T/C [30]: 5.39% | viability, T/C [31]: 91.6% | viability, T/C [32]: 102% | viability, T/C [33]: 72.7% | viability, T/C [34]: 15.7% | viability, T/C [35]: 6.3% | viability, T/C [36]: 4.96%

C=CC(=O)N1CCN(c2nc(=O)n(-c3c(C)ccnc3C(C)C)c3nc(-c4c(O)cccc4F)c(F)cc23)C(C)C1 (stereo unspecified) + Cc1cccc(N(C)C(=O)C2C(O)CCN2c2nc(C)cc(C(F)(F)F)c2C#N)c1
pIC50 (second compound 0.0316 µM): < 5.00 | pIC50 (second compound 0.1 µM): < 5.00 | pIC50 (second compound 0.316 µM): < 5.00 | pIC50 (second compound 1 µM): < 5.00 | pIC50 (second compound 3.16 µM): < 5.00 | pIC50 (second compound 10 µM): < 5.00 | viability, T/C [1]: 101% | viability, T/C [2]: 104% | viability, T/C [3]: 102% | viability, T/C [4]: 104% | viability, T/C [5]: 111% | viability, T/C [6]: 93.5% | viability, T/C [7]: 98.4% | viability, T/C [8]: 95.6% | viability, T/C [9]: 98.7% | viability, T/C [10]: 103% | viability, T/C [11]: 100% | viability, T/C [12]: 97.7% | viability, T/C [13]: 103% | viability, T/C [14]: 106% | viability, T/C [15]: 105% | viability, T/C [16]: 105% | viability, T/C [17]: 99.5% | viability, T/C [18]: 102% | viability, T/C [19]: 95.8% | viability, T/C [20]: 105% | viability, T/C [21]: 106% | viability, T/C [22]: 99.8% | viability, T/C [23]: 112% | viability, T/C [24]: 91.4% | viability, T/C [25]: 99.2% | viability, T/C [26]: 104% | viability, T/C [27]: 107% | viability, T/C [28]: 102% | viability, T/C [29]: 99.1% | viability, T/C [30]: 96.7% | viability, T/C [31]: 100% | viability, T/C [32]: 90.8% | viability, T/C [33]: 101% | viability, T/C [34]: 102% | viability, T/C [35]: 94.4% | viability, T/C [36]: 88.8%
